Data as given in patent publication US20240207461A1, “RADIOACTIVE ANTITUMOR AGENT” (NIHON MEDI-PHYSICS CO., LTD., priority 2021, published 2024).

Key:
[1] = tested on: CD-1 mice; test: Autopsy and measurement of kidney weight; type: in vivo, mouse; details: at autopsy, 184 days from administration
Protocol: The ^225Ac-labeled anti-MUC5AC humanized antibody produced in Production Example 3 was administered to CD-1 mice (5 weeks old, male, manufactured by Charles River Japan), each group n=5 at a dose of 15 kBq/mouse and, as a renal protective agent, any of Zn-DTPA, furosemide, spironolactone, and eplerenone was administered in combination at the dosage, administration method, administration frequency, and initial administration timing shown in Table 1. That is, a group to which only ^225Ac-labeled anti-MUC5AC humanized antibody was administered (Comparative Example 1), a group to which ^225Ac-labeled anti-MUC5AC humanized antibody and each renal protective agent administered in combination (Example 1 to Example 7), and a group to which only a renal protective agent is administered without administration of ^225Ac-labeled anti-MUC5AC humanized antibody (Comparative Examples 2 to 5) were established. The dose of the ^225Ac-labeled anti-MUC5AC humanized antibody, each renal protective agent, and feeding conditions are shown in Table 1. The sustained release tablets used for the transdermal administration group of each renal protective agent were those manufactured by Innovative Research of America, and the mixed feed containing 0.004% of each renal protective agent used was manufactured by Oriental Yeast Co., Ltd.
On the final day of the observation period (184 days from the day of administration of the ^225Ac-labeled anti-MUC5AC humanized antibody), euthanasia and autopsy were performed by exsanguination under isoflurane anesthesia. After autopsy, the kidneys were collected and weighed. The obtained organ weight measurement results (excluding Example 7) were confirmed for the homoscedasticity of the measured values. Since homoscedasticity was confirmed for all items, a significant difference test was performed using the Tukey method, which is a parametric test. The significance level was set to 5%.

[2] = tested on: CD-1 mice; test: Urinary renal toxicity marker (urinary NGAL/creatinine ratio by ELISA); type: in vivo; details: urine 16 weeks after administration of ^225Ac-labeled antibody (15 kBq/mouse), n=4 to 5
Protocol: Whether combined administration of a ^225Ac-labeled anti-MUC5AC humanized antibody prepared using ^225Ac-labeled DOTAGA-DBCO and a compound expected to have a renal protective effect (renal protective agent) reduces delayed renal toxicity caused by radiation emitted from ^225Ac or ^225Ac daughter nuclide was evaluated. […]
During the observation period, body weight measurement, blood cell measurement, and renal toxicity marker measurement were performed over time and signs of toxicity were evaluated.
Urine was collected from each individual 16 weeks after the administration of the ^225Ac-labeled anti-MUC5AC humanized antibody, and neutrophil gelatinase-associated lipocalin (NGAL), and creatinine concentration of the urine samples were measured by ELISA. […] The NGAL value corrected for urine concentration was calculated by dividing the obtained NGAL value by the creatinine value (urinary NGAL/creatinine ratio, hereinafter referred to as urinary N/C ratio). The calculated urinary N/C ratio was confirmed using Stat PreClinica (manufactured by Takumi Information Technology Co., Ltd.) for the homoscedasticity of the measured values. […]

Q: With O=C([O-])CN(CCN(CC(=O)[O-])CC(=O)[O-])CCN(CC(=O)[O-])CC(=O)[O-].[Na+].[Na+].[Na+].[Zn+2] [Comparative Example 2, Zn-DTPA] as the molecule, how does the body weight [1] read?
A: 44.48 ± 4.5 g

Q: And the kidney weight [1]?
A: 0.75 ± 0.12 g

Q: What about the “kidney weight/body weight ratio” value [1] of the same molecule?
A: 0.017 ± 0.001

Q: And the “N/C ratio (urinary NGAL/creatinine ratio)” value [2]?
A: 1.1 ± 0.60
